Among the test systems are CAKI-1 renal; HOP-62 NSCLC; HT29 colon; OVCAR-4 ovarian; OVCAR-5 ovarian; SF-295 CNS; TK-10 renal; COLO 205 colon; U251 CNS.
Holding throughout (experiment): DTP human tumour cell line panel, 48 h

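How tested: cells in 96-well plates exposed to compound for 48 hours at five concentrations. Here, GI50 denotes the concentration required for 50% inhibition of growth. TGI denotes the concentration required for complete inhibition of growth.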

Broadly, the GI50 is the concentration that inhibits growth by half. Usually TGI stands for the concentration giving total growth inhibition. Read a low TGI as more potent growth arrest.

Take `CC(=O)[CH-]C(=O)c1ccccc1.CC(=O)[CH-]C(=O)c1ccccc1.CC1(C)OCC(C2OC3OC(C)(C)OC3C2[O-])O1.CC1(C)OCC(C2OC3OC(C)(C)OC3C2[O-])O1.[Ti+4]` (stereo unspecified): the GI50 with CAKI-1 renal is 29.9 µM; in the experiment on HOP-62 NSCLC it was 17.9 µM; in the experiment with HT29 colon, 16.3 µM; with OVCAR-4 ovarian it was 20.4 µM; in the experiment on OVCAR-5 ovarian, 12.3 µM; in the experiment with SF-295 CNS, 13.8 µM. In addition, the GI50 in the experiment with TK-10 renal is 34.1 µM. For the same molecule, the total growth inhibition concentration (TGI) in the experiment on CAKI-1 renal is 79.7 µM; in the experiment with HOP-62 NSCLC, 36.2 µM; with HT29 colon, 40.6 µM; in the experiment on OVCAR-4 ovarian, 68.4 µM; with OVCAR-5 ovarian it was 29 µM; in the experiment with SF-295 CNS, 30.8 µM. The same molecule displayed a total growth inhibition concentration (TGI) in the experiment with TK-10 renal of more than 100 µM.
Regarding `Cc1cc(Cl)ccc1NC(=O)CCCC(=O)C1CCC/C1=N\NC(=O)CC#N` (stereo unspecified), the TGI in the experiment on CAKI-1 renal, with COLO 205 colon, with HT29 colon, in the experiment on OVCAR-4 ovarian, with OVCAR-5 ovarian and in the experiment with SF-295 CNS was more than 100 µM each time. For the same molecule, the TGI with TK-10 renal and in the experiment on U251 CNS was more than 100 µM in each case.
Regarding `COC(=O)C(CC(C)=O)CS(=O)(=O)CC(=O)C(=O)Nc1cccc([N+](=O)[O-])c1` (stereo unspecified), the TGI in the experiment with CAKI-1 renal, with COLO 205 colon, in the experiment on HOP-62 NSCLC, in the experiment on OVCAR-4 ovarian, with OVCAR-5 ovarian and with TK-10 renal was more than 100 µM each time. This molecule registered a TGI in the experiment on U251 CNS of more than 100 µM.
Regarding `CCOC(=O)C1=C(C)N(Cc2ccccc2)C(=O)C1CC#N` (stereo unspecified), the TGI with CAKI-1 renal, with COLO 205 colon, with HOP-62 NSCLC, in the experiment with HT29 colon, with OVCAR-4 ovarian and in the experiment on SF-295 CNS was more than 100 µM each time. Moreover, the TGI with U251 CNS is more than 100 µM.
Consider `Cc1cc(=O)n2c3c(c4c(cc13)c(CO)cc(=O)n4C)OC2`, for which the TGI in the experiment on CAKI-1 renal is more than 100 µM; with COLO 205 colon, more than 100 µM; with HOP-62 NSCLC, 40.2 µM; in the experiment with HT29 colon, more than 100 µM; in the experiment on OVCAR-4 ovarian, more than 100 µM; with OVCAR-5 ovarian, 72.3 µM. Moreover, the figures for the TGI in the experiment on SF-295 CNS, with TK-10 renal and with U251 CNS were more than 100 µM, 62.4 µM and more than 100 µM, respectively.
`O=C(N/C(=C\c1ccc(/C=C(\NC(=O)c2ccccc2)c2nc3cc(Cl)ccc3[nH]2)cc1)c1nc2cc(Cl)ccc2[nH]1)c1ccccc1`: the TGI in the experiment with CAKI-1 renal is more than 100 µM; in the experiment with COLO 205 colon it was 51.3 µM; with HOP-62 NSCLC it was more than 100 µM; with HT29 colon it was more than 100 µM; in the experiment on OVCAR-4 ovarian, 87 µM; with OVCAR-5 ovarian, more than 100 µM. Further, the concentration for total growth inhibition (TGI) with SF-295 CNS is more than 100 µM; in the experiment on TK-10 renal, 79 µM; in the experiment with U251 CNS, more than 100 µM.
In the case of `CC1(c2cccc(N)c2)C2C(=O)NC(=O)C1C(=O)NC2=O` (stereo unspecified), the TGI in the experiment with CAKI-1 renal was more than 100 µM; in the experiment with COLO 205 colon, 50.2 µM; in the experiment with HOP-62 NSCLC, more than 100 µM; in the experiment with HT29 colon it was more than 100 µM; with OVCAR-4 ovarian, more than 100 µM; in the experiment on OVCAR-5 ovarian, more than 100 µM. Besides, the results for the TGI with SF-295 CNS and with TK-10 renal were 58.8 µM and more than 100 µM, respectively.
For `COC(=O)NN1C(C)=C(C(=O)OC)C2(C#N)C(C(=O)OC)=C(C)N(NC(=O)OC)C12N` (stereo unspecified), the TGI in the experiment on CAKI-1 renal, in the experiment with COLO 205 colon, in the experiment on HOP-62 NSCLC, in the experiment with HT29 colon, in the experiment with OVCAR-4 ovarian and with OVCAR-5 ovarian was more than 100 µM in each case. Moreover, the TGI in the experiment with TK-10 renal and in the experiment with U251 CNS was more than 100 µM in each case.
As to `O=C(NNc1ccc(F)cc1)C1CCC(CNS(=O)(=O)c2ccc(Cl)c(Cl)c2)CC1` (stereo unspecified), the GI50 was 2.87 µM in the experiment with CAKI-1 renal; 14.4 µM with COLO 205 colon; 15.9 µM in the experiment with HOP-62 NSCLC; 9.02 µM with OVCAR-4 ovarian; 7.7 µM in the experiment with OVCAR-5 ovarian; 2.16 µM with SF-295 CNS. Besides, the GI50 was 1.74 µM with TK-10 renal and 10.3 µM in the experiment with U251 CNS. Moreover, the TGI was 28.1 µM in the experiment with CAKI-1 renal; more than 50 µM in the experiment with COLO 205 colon; more than 50 µM with HOP-62 NSCLC; 47 µM in the experiment on OVCAR-4 ovarian; 25.2 µM in the experiment on OVCAR-5 ovarian; 45.5 µM with SF-295 CNS. For the same molecule, the TGI in the experiment with TK-10 renal was 16.4 µM; with U251 CNS, more than 50 µM.
Consider `Cc1ccc2c(c1)C1(OC(=O)c3ccccc31)c1ccc(F)cc1O2` (stereo unspecified), for which the TGI with CAKI-1 renal, in the experiment on COLO 205 colon, with HOP-62 NSCLC, in the experiment on HT29 colon, with OVCAR-4 ovarian and with OVCAR-5 ovarian was more than 100 µM each time. In addition, in the experiment with TK-10 renal, the TGI is more than 100 µM.
Consider `Cc1ccc2c(c1)C1C(CO2)C(c2ccccc2)=NN1c1ccccc1` (stereo unspecified), for which the TGI with COLO 205 colon, in the experiment with HOP-62 NSCLC, in the experiment with HT29 colon, in the experiment on OVCAR-5 ovarian, with SF-295 CNS and in the experiment with TK-10 renal was more than 100 µM each time. For the same molecule, the TGI in the experiment with U251 CNS was more than 100 µM.
For `Cn1c(=O)c2ccc(-c3ccc(Br)cc3)nc2n(C)c1=O`, the total growth inhibition concentration (TGI) in the experiment on COLO 205 colon, in the experiment with HOP-62 NSCLC, in the experiment on HT29 colon, with OVCAR-4 ovarian, in the experiment with OVCAR-5 ovarian and with SF-295 CNS was more than 100 µM in each case. The TGI in the experiment on TK-10 renal and in the experiment with U251 CNS was more than 100 µM throughout.
For `CSc1ccc(OCC2OC2O)cc1` (stereo unspecified), the concentration for total growth inhibition (TGI) was more than 76.6 µM with CAKI-1 renal; 35.5 µM in the experiment on COLO 205 colon; more than 100 µM with HOP-62 NSCLC; more than 90.9 µM in the experiment on HT29 colon; more than 100 µM in the experiment with OVCAR-4 ovarian; more than 100 µM in the experiment with OVCAR-5 ovarian. For the same molecule, the TGI in the experiment on SF-295 CNS, with TK-10 renal and with U251 CNS was more than 100 µM each time.
As to `COC(=O)C1=Cc2cc(OC)c(OC)cc2[C@H](c2ccc(OC)c(OC)c2)C1C(=O)OC` (stereo partly specified), the concentration for total growth inhibition (TGI) in the experiment on CAKI-1 renal, with COLO 205 colon, in the experiment on HOP-62 NSCLC, with HT29 colon, in the experiment on OVCAR-4 ovarian and with OVCAR-5 ovarian was more than 100 µM each time. The TGI in the experiment on SF-295 CNS, with TK-10 renal and in the experiment with U251 CNS was more than 100 µM each time.

For the origin of these results see PubChem BioAssay (NCI).
